Series [1] relates to gene expression in trigeminal ganglia. Briefly: Affymetrix microarray of trigeminal ganglia RNA after estradiol administration. The settings on record: OVX rats, estradiol 80 μg/kg/10 days versus vehicle. In kind it is in vivo, rat. Here is the method: At the end of the 10th day, animals were used for behavioral experiments or sacrificed by decapitation and the TG of each individual animal were harvested. Harvested tissue was used for RNA isolation, total protein isolation, or for preparing primary cultures of TG neurons.
The ground tissue was used to isolate total RNA by the guanidinium thiocyanate method as described previously (Chomczynski and Sacchi, 1987). The isolated RNA was then treated with a DNA-free reagent (DNAse I; Ambion, Austin, Tex.) and submitted to the Microarray Core Facility at the University of Texas Health Science Center at San Antonio. Additional RNA sample aliquots were used as template for the quantitative real time RT-PCR experiments.
Microarray analysis: Target preparation, hybridization, staining, scanning and analysis of image: RNA samples derived from TG of OVX rats treated with a single dose (80 μg/kg per day) of E2 or vehicle (n=5 for each group) were prepared for hybridization to Affymetrix (Santa Clara, Calif.) RG-U34A arrays according to the manufacturer's instructions. Total RNA was used as a template for double-stranded cDNA synthesis (Superscript Double-Stranded cDNA Synthesis kit, Invitrogen, Carlsbad, Calif.), which was used as a template for biotin-labeled cRNA synthesis (Enzo BioArray High Yield RNA Transcription Labeling Kit, Affymetrix). Purified (RNeasy kit, Qiagen, Valencia, Calif.) labeled-cRNA was hybridized to the rat genomic RG-U34A GeneChips for 16 h at 45° C. Following hybridization, the probe arrays were washed and stained using the GeneChip Fluidics station protocol EukGE-ES2. The intensity of bound dye was measured with an argon laser confocal scanner (GeneArray Scanner, Agilent, Palo Alto, Calif.). The probe arrays were scanned twice and the stored images were aligned and analyzed using the GeneClip software Micro array Analysis Suite (MAS) 5.0 (Affymetrix, Santa Clara, Calif.). Data were imported into the GeneSpring 5.1 software (Silicon Genetics, Redwood City, Calif.) and a list of genes of relative expression of ≧1.5 and ≧0.5 fold was obtained. The data were imported into the R software package and the probe level data were converted to expression measures using the Affy package (Bolstad et al., 2003) from Bioconductor. Expression values for each mRNA were obtained by the Robust Multi-array Analysis (RMA) method as described elsewhere (Boistad et al., 2003).

In series [2] the test system is acutely dissociated TG neurons. Briefly: Calcium imaging, PRL effect on capsaicin-evoked Ca2+ influx. In kind it is cell-based, rat. The text has this:
The binding of PRL to the PRL-R activates a variety of intracellular signaling pathways in non-neuronal cells (Bole-Feysot et al. 1998), some of which are known to be involved in the sensitization of TRPV1 in nociceptors (Cesare and McNaughton, 1996). To evaluate whether PRL sensitizes capsaicin activation of TRPV1, changes in calcium (Ca^2+) influx were quantified in acutely dissociated TG neurons. FIG. 4A depicts the results of Ca^2+ imaging experiments performed in acutely dissociated TG neurons. Data are presented as mean % of vehicle±SEM (n=30/group, ***=p<0.001; two-way ANOVA). FIG. 4B depicts representative traces of Ca^2+ imaging experiments performed in neurons from proestrous rats. Neurons were treated with 40 nM PRL or vehicle for 10 min followed by a 40 sec capsaicin (30 nM) application. […] Data are presented as mean F340/F380±SEM (n=8/group; error bars are SEM). […] PRL appears to increase the magnitude of capsaicin-evoked Ca^2+ influx in TG neurons by about 71% compared to that observed in TG neurons not exposed to PRL, whereas PRL had no effect on capsaicin-evoked calcium influx in neurons from OVX control rats (FIG. 4A). […]
Calcium Imaging: TG cells cultured on coverslips were loaded with the cell-permeable calcium sensitive dye FURA 2-AM (1 ug/ml) (Molecular Probes, Eugene, Oreg.) for 30 min at 37° C. in Standard External Solution (SES) of the following composition in mM: 140 NaCl, 5 KCl, 2 CaCl2, 1 MgCl2, 10 glucose and 10 HEPES, pH 7.4. […] Fluorescence images were collected in 5 sec intervals throughout the experiment, analyzed, and the F340/F380 ratio calculated by the Methafluor Software (MethaMorph, Web Universal Imaging Corporation, Downingtown, Pa.). […] The magnitude of calcium influx was determined by subtracting the averaged baseline 30 sec prior to the capsaicin stimulus from the peak achieved by the capsaicin stimulation for each cell (ratiometric method, ΔF340/F380).

This is an account of results in patent US7507716B2, “Method for treating pain with prolactin antagonists” (Board of Regents, The University of Texas System, priority 2005, dated 2009).

Regarding `C[C@]12CC[C@@H]3c4ccc(O)cc4CC[C@H]3[C@@H]1CC[C@@H]2O` [estradiol, 17-β-estradiol], in series [1] (probe set AA958274_at), the “Trk A 3′ mRNA sequence expression, GS (change cut-off)” value is “≧1.5” and the “Trk A 3′ mRNA sequence expression, SAM” value came out at 1.5. In addition, in series [1] (probe set AB002393_at), the “Histidine ammonia lyase expression, GS (change cut-off)” value is on record as “≧1.5” and the “Histidine ammonia lyase expression, SAM” value is 1.5. Besides, in series [1] (probe set AF050662UTR#1_at), the “Ania-10 early gene mRNA, 3′ UTR expression, GS (change cut-off)” value is on record as “≧1.5” and the “Ania-10 early gene mRNA, 3′ UTR expression, SAM” value amounted to 1.6. Besides, in series [1] (probe set AF050664UTR#1_at), the “Ania-12 early gene mRNA, 3′ UTR expression, GS (change cut-off)” value was “≧1.5” and the “Ania-12 early gene mRNA, 3′ UTR expression, SAM” value came to 1.5. In addition, in series [1] (probe set AF087674_at), the “Insulin receptor substrate 2 (IRS-2) mRNA expression, GS (change cut-off)” value is reported as “≧1.5” and the “Insulin receptor substrate 2 (IRS-2) mRNA expression, SAM” value came out at 1.4. In addition, the “Interleukin 1 alpha expression, GS (change cut-off)” value in series [1] (probe set D00403_g_at) was “≧1.5”. Also, the “Interleukin 1 alpha expression, SAM” value in series [1] (probe set D00403_g_at, false positive by RT-PCR) is 1.3. In addition, in series [1] (probe set D14097cds_s_at), the “Aldosterone synthase, exon 9 expression, GS (change cut-off)” value is listed as “≧1.5” and the “Aldosterone synthase, exon 9 expression, SAM” value was determined as 1.5. Also, in series [1] (probe set D38381_s_at), the “Cytochrome P450, 3a18 expression, GS (change cut-off)” value is “≧1.5” and the “Cytochrome P450, 3a18 expression, SAM” value was found to be 1.3. In series [1] (probe set D49494cds_s_at), the “Prepro bone inducing protein expression, GS (change cut-off)” value is listed as “≧1.5” and the “Prepro bone inducing protein expression, SAM” value was found to be 1.3. In series [1] (probe set E03166cds_s_at), the “Prolactin expression, GS (change cut-off)” value is on record as “≧1.5” and the “Prolactin expression, SAM” value came to 6.9. Also, in series [1] (probe set M25801_g_at), the “Nuclear receptor subfamily 1, Group D, member 1 expression, GS (change cut-off)” value was “≧1.5” and the “Nuclear receptor subfamily 1, Group D, member 1 expression, SAM” value worked out at 1.5. In series [1] (probe set M31809_at), the “Protein phosphatase 3, catalytic subunit, beta isoform expression, GS (change cut-off)” value is reported as “≦1.5” and the “Protein phosphatase 3, catalytic subunit, beta isoform expression, SAM” value is 0.6. In addition, in series [1] (probe set Rc_AA894174_at), the “Electron transf. flavoprotein (Etfa), mRNA expression, GS (change cut-off)” value is given as “≦1.5” and the “Electron transf. flavoprotein (Etfa), mRNA expression, SAM” value was found to be 0.7. In addition, in series [1] (probe set S69383_at), the “Arachidonate 12-lipoxygenase expression, GS (change cut-off)” value is on record as “≦1.5” and the “Arachidonate 12-lipoxygenase expression, SAM” value was 0.5. Moreover, in series [1] (probe set V01244_at), the “Prolactin expression, GS (change cut-off)” value is “≧1.5” and the “Prolactin expression, SAM” value stood at 12.8. In addition, in series [1] (probe set V01250cds_s_at), the “Prolactin expression, GS (change cut-off)” value is reported as “≧1.5” and the “Prolactin expression, SAM” value was 3. Also, in series [1] (probe set X54419cds_at), the “Interleukin 5 (colony-stimulating factor, eosinophil) expression, GS (change cut-off)” value is on record as “≧1.5” and the “Interleukin 5 (colony-stimulating factor, eosinophil) expression, SAM” value is 1.3. In series [1] (probe set X60328_at), the “Cytosolic epoxide hydrolase expression, GS (change cut-off)” value is reported as “≧1.5” and the “Cytosolic epoxide hydrolase expression, SAM” value is 1.7. Also, in series [1] (probe set rc_AA859966_i_at), the “Similar to M. musculus pre 45S pre rRNA gene expression, GS (change cut-off)” value is “≧1.5” and the “Similar to M. musculus pre 45S pre rRNA gene expression, SAM” value amounted to 4.1. In addition, in series [1] (probe set rc_AA945571_sat), the “Cytochrome P450, subfamily IIC6 expression, GS (change cut-off)” value is given as “≧1.5” and the “Cytochrome P450, subfamily IIC6 expression, SAM” value was found to be 1.7.

B1: PRL: Ovine PRL [oPRL-21, BIO] provided by NHPP; prolactin polypeptide hormone (protein, UniProt P01240 31-229, looked up)
Prolactin: TPVCPNGPGNCQVSLRDLFDRAVMVSHYIHNLSSEMFNEFDKRYAQGKGFITMALNSCHTSSLPTPEDKEQAQQTHHEVLMSLILGLLRSWNDPLYHLVTEVRGMKGVPDAILSRAIEIEEENKRLLEGMEMIFGQVIPGAKETEPYPVWSGLPSLQTKDEDARHSAFYNLLHCLRRDSSKIDTYLKLLNCRIIYNNNC
Regarding B1, in series [2] (PRL 40 nM 10 min, capsaicin 30 nM 40 sec, neurons from intact female rats), the “increase in magnitude of capsaicin-evoked Ca2+ influx” value is recorded as “about 71%”. The “effect on capsaicin-evoked calcium influx” value in series [2] (PRL 40 nM, neurons from OVX control rats) is on record as “had no effect”. Moreover, the “Ca2+ influx evoked by PRL on its own” value in series [2] (PRL 40 nM, neurons from proestrous rats) was “did not evoke Ca^2+ influx on its own”.
